The values that follow come from US20240166649A1, “DIHYDROPYRIMIDINE COMPOUND, PREPARATION METHOD THEREFOR AND APPLICATION THEREOF” (Shanghai Visonpharma Co., Ltd., priority 2021, published 2024).

The subject of the assay is HBV (hepatitis B virus) in HepG2.2.15 cells. In words: Cell-based anti-viral activity assay (HBV DNA in supernatant by quantitative PCR). The note with it: 120 h, anti-HBV activity, HepG2.2.15 cells, 5 days, read-out: EC50 (HepG2.2.15). As for the experimental part:
Cell-Based Anti-Viral Activity Assay
The Invention determined the anti-HBV (hepatitis B virus) activity of compounds in HepG2.2.15 cells (Table 1).
HepG2.2.15 is a cell line stably transfected with the HBV genome. HepG2.2.15 cells were cultured in DMEM (1X) with 10% fetal bovine serum (Corning), 100 U penicillin (Gibico), 100 μg/mL streptomycin (Gibico), 250 μg/mL geneticin (Gibco) and GlutaMAXTM-I medium (Invitrogen).
HepG2.2.15 cells were seeded into 96-well plates (4×10^4 cells in 100 μL of medium per well) and incubated overnight at 37° C. The test compounds were weighed and prepared as 10 mM stock solution with DMSO. The stock solutions of the compounds were diluted by a gradient of 3.16 times with DMSO, and then diluted by a gradient of 3.16 times with medium for 50 times. Finally, the diluted compound solutions were added to the cell plate with a total volume of 200 μL and the final DMSO concentration was 1%. The 96-well culture plates loaded with drugs were transferred to an incubator at 37° C. for 5 days. […] nucleic acid releasing agent was added to 96-well PCR reaction plate, and 2 μL of cell supernatant or HBV quantitative standards were added to the corresponding Wells. Centrifuged the plates to fully mix, and incubated at room temperature for 10 min to fully release nucleic acid. Quantified HBV DNA content by fluorescent quantitative PCR (CFX Connect Real-Time System) using Sanxiang Bio hepatitis B virus fluorescent quantitative diagnostic kit.
The standard curve was established by taking the logarithm of the copy number (IU/ml) of the HBV standard sample (log 10) as the abscordinate and the corresponding CT value as the ordinate. The copy number of the sample was calculated according to the corresponding CT of the positive sample and the standard curve, and the percentage of inhibition rate was calculated as follows: • % Inhibition=100-100*(sample HBV copy number−high concentration reference compound column HBV copy number)/DMSO column HBV copy number−high concentration reference compound column HBV copy number).

As usually defined, the EC50 is the concentration giving half of the maximal effect. On to `CCOC(=O)C1=C(CN2CCN3C(=O)N(C45CC(CN6CCCC6=O)(C4)C5)C[C@@H]3C2)NC(c2nccs2)=N[C@H]1c1cccc(F)c1C` [Compound 25, Ethyl (S)-4-(3-Fluoro-2-Methylphenyl)-6-(((S)-3-Oxo-2-(3-((2-Oxopyrrolidin-1-Yl)Methyl)Bicyclo[1.1.1]Pentan-1-Yl)Hexahydroimidazo[1,5-a]Pyrazin-7(1H)-Yl)Methyl)-2-(Thiazol-2-Yl)-1,4-Dihydropyrimidine-5-Carboxylate], for which the EC50 worked out at 2 nM. For the compound `CCOC(=O)C1=C(CN2CCN3C(=O)N(C45CC(C(=O)NC)(C4)C5)C[C@@H]3C2)NC(c2nccs2)=N[C@H]1c1cccc(F)c1C` [Compound 26, Ethyl (S)-4-(3-Fluoro-2-Methylphenyl)-6-(((S)-2-(3-(Methylcarbamoyl)Bicyclo[1.1.1]Pentan-1-Yl)-3-Oxohexahydroimidazo[1,5-a]Pyrazin-7(1H)-Yl)Methyl)-2-(Thiazol-2-Yl)-1,4-Dihydropyrimidine-5-Carboxylate], the concentration giving a half-maximal response (EC50) was 5 nM.

For `CCOC(=O)C1=C(CN2CCN3C(=O)N(C45CC(C(=O)N6CCOCC6)(C4)C5)C[C@@H]3C2)NC(c2nccs2)=N[C@H]1c1cccc(F)c1C` [Compound 27, Ethyl (S)-4-(3-Fluoro-2-Methylphenyl)-6-(((S)-2-(3-(Morpholine-4-Carbonyl)Bicyclo[1.1.1]Pentan-1-Yl)-3-Oxohexahydroimidazo[1,5-a]Pyrazin-7(1H)-Yl)Methyl)-2-(Thiazol-2-Yl)-1,4-Dihydropyrimidine-5-Carboxylate], the EC50 turned out to be 6 nM. With `CCOC(=O)C1=C(CN2CCN3C(=O)N(C45CC(C(C)C(=O)O)(C4)C5)C[C@@H]3C2)NC(c2nccs2)=N[C@H]1c1cccc(F)c1C` (stereo partly drawn) [Compound 30, 2-(3-((S)-7-(((S)-5-(Ethoxycarbonyl)-6-(3-Fluoro-2-Methylphenyl)-2-(Thiazol-2-Yl)-3,6-Dihydropyrimidin-4-Yl)Methyl)-3-Oxohexahydroimidazo[1,5-a]Pyrazin-2(3H)-Yl)Bicyclo[1.1.1]Pentan-1-Yl)Propanoic Acid], the half-maximal effective concentration (EC50) is 11 nM. To `CCOC(=O)C1=C(CN2CCN3C(=O)N(C45CC(CO)(C4)C5)C[C@@H]3C2C(=O)OCC)NC(c2nccs2)=N[C@H]1c1cccc(F)c1C` (stereo partly drawn) [Compound 31, Ethyl (8aR)-7-(((S)-5-(Ethoxycarbonyl)-6-(3-Fluoro-2-Methylphenyl)-2-(Thiazol-2-Yl)-3,6-Dihydropyrimidin-4-Yl)Methyl)-2-(3-(Hydroxymethyl)Bicyclo[1.1.1]Pentan-1-Yl)-3-Oxooctahydroimidazo[1,5-a]Pyrazine-8-Carboxylate] belongs 25 nM. `CCOC(=O)C1=C(CN2CCN3C(=S)N(C45CC(C(=O)O)(C4)C5)C[C@@H]3C2)NC(c2nccs2)=N[C@H]1c1cccc(F)c1C` [Compound 32, 3-((S)-7-(((S)-5-(Ethoxycarbonyl)-6-(3-Fluoro-2-Methylphenyl)-2-(Thiazol-2-Yl)-3,6-Dihydropyrimidin-4-Yl)Methyl)-3-Thioxohexahydroimidazo[1,5-a]Pyrazin-2(3H)-Yl)Bicyclo[1.1.1]Pentane-1-Carb Oxylic Acid]: the concentration giving a half-maximal response (EC50) came to 30 nM. To `CCOC(=O)C1=C(CN2CCN3C(=O)N(C45CC(CC(=O)O)(C4)C5)C[C@@H]3C2)NC(c2nccs2)=N[C@H]1c1cccc(F)c1Cl` [Compound 34, 2-(3-((S)-7-(((R)-6-(2-Chloro-3-Fluorophenyl)-5-(Ethoxycarbonyl)-2-(Thiazol-2-Yl)-3,6-Dihydropyrimidin-4-Yl)Methyl)-3-Oxohexahydroimidazo[1,5-a]Pyrazin-2(3H)-Yl)Bicyclo[1.1.1]Pentan-1-Yl)Acetic Acid] belongs 22 nM; to `CCOC(=O)C1=C(CN2CCN3C(=O)N(C45CC(CC(=O)O)(C4)C5)C[C@@H]3C2)NC(c2nccs2)=N[C@H]1c1ccc(F)c(F)c1` [Compound 36], 48 nM; to `COC(=O)C1=C(CN2CCN3C(=O)N(C45CC(CC(=O)O)(C4)C5)C[C@@H]3C2)NC(c2nccs2)=N[C@H]1c1ccc(F)cc1Br` [Compound 39, 2-(3-((S)-7-(((R)-6-(2-Bromo-4-Fluorophenyl)-5-(Methoxycarbonyl)-2-(Thiazol-2-Yl)-3,6-Dihydropyrimidin-4-Yl)Methyl)-3-Oxohexahydroimidazo[1,5-a]Pyrazin-2 (3H)-Yl)Bicyclo[1.1.1]Pentane-1-Yl)Acetic Acid], 32 nM. With `CCOC(=O)C1=C(CN2CCN3C(=O)N(C45CC(CC(C)(C)C(=O)O)(C4)C5)C[C@@H]3C2)NC(c2nccs2)=N[C@H]1c1ccc(F)cc1Cl` [Compound 40], the concentration for a half-maximal effect (EC50) is 12 nM. Regarding `COC(=O)C1=C(CN2CCN3C(=O)N(C45CC(CC(=O)O)(C4)C5)C[C@@H]3C2)NC(c2nccs2)=N[C@H]1c1ccc(F)c(F)c1C` [Compound 41, 2-(3-((S)-7-(((S)-6-(3,4-Difluoro-2-Methylphenyl)-5-(Methoxycarbonyl)-2-(Thiazol-2-Yl)-3,6-Dihydropyrimidin-4-Yl)Methyl)-3-Oxohexahydroimidazo[1,5-a]Pyrazin-2(3H)-Yl)Bicyclo[1.1.1]Pentan-1-Yl)Acetic Acid], the EC50 worked out at 8 nM. On to `CCOC(=O)C1=C(CN2CCN3C(=O)N(C45CC(C(C)(C)C(=O)O)(C4)C5)C[C@@H]3C2)NC(c2nccs2)=N[C@H]1c1cccc(F)c1C` [Compound 42], for which the EC50 came to 11 nM.

`CCOC(=O)C1=C(CN2CCN3C(=O)N(C45CC(CC(=O)O)(C4)C5)C[C@@H]3[C@H]2COC)NC(c2nccs2)=N[C@H]1c1cccc(F)c1C` [Compound 43, 2-(3-((8S,8aR)-7-(((S)-5-(Ethoxycarbonyl)-6-(3-Fluoro-2-Methylphenyl)-2-(Thiazol-2-Yl)-3,6-Dihydropyrimidin-4-Yl)Methyl)-8-(Methoxymethyl)-3-Oxohexahydroimidazo[1,5-a]Pyrazin-2(3H)-Yl)Bicyclo[1.1.1]Pentan-1-Yl)Acetic Acid]: the 50% effective concentration (EC50) amounted to 197 nM. Then `CCOC(=O)C1=C(CN2CCN3C(=O)N(C45CC(C(O)C(=O)O)(C4)C5)C[C@@H]3C2)NC(c2nccs2)=N[C@H]1c1cccc(F)c1C` (stereo partly drawn) [Compound 50, 2-(3-((S)-7-(((S)-5-(Ethoxycarbonyl)-6-(3-Fluoro-2-Methylphenyl)-2-(Thiazol-2-Yl)-3,6-Dihydropyrimidin-4-Yl)Methyl)-3-Oxohexahydroimidazo[1,5-a]Pyrazin-2(3H)-Yl)Bicyclo[1.1.1]Pentan-1-Yl)-2-Hydroxyacetic Acid], with 3 nM. On to `CCOC(=O)C1=C(CN2CCN3C(=O)N(C45CC(C(OC)C(=O)O)(C4)C5)C[C@@H]3C2)NC(c2nccs2)=N[C@H]1c1cccc(F)c1C` (stereo partly drawn) [Compound 51, 2-(3-((S)-7-(((S)-5-(Ethoxycarbonyl)-6-(3-Fluoro-2-Methylphenyl)-2-(Thiazol-2-Yl)-3,6-Dihydropyrimidin-4-Yl)Methyl)-3-Oxohexahydroimidazo[1,5-a]Pyrazin-2(3H)-Yl)Bicyclo[1.1.1]Pentan-1-Yl)-2-Methoxyacetic Acid], for which the EC50 is 139 nM. For `CCOC(=O)C1=C(CN2CCN3C(=O)N(C45CCC(C(=O)O)(CC4)CC5)C[C@@H]3C2)NC(c2nccs2)=N[C@H]1c1ccc(F)c(F)c1C` [Compound 54], the EC50 came out at 3 nM.
